The values below come from patent US7795378B2, “Peptide compositions for treatment of sexual dysfunction” (Palatin Technologies, Inc., priority 2002, dated 2010).

*1 amine or outer side, *2 acyl side, *3 side chain or, on linkers, in order; H or OH if unused. Where a SMILES comes first, the peptide text is derived from it. [ ]: non-standard residue; d: D form. The star is where a group is joined. Arg(NO2) = N=C(NCCC[C@H](N)C(=O)O)N[N+](=O)[O-]; Ser(Bzl) = O=C([C@H](COCc1ccccc1)N[*:1])[*:2]; dPhe(4-Cl) = N[C@H](Cc1ccc(Cl)cc1)C(=O)O; d2Nal = N[C@H](Cc1ccc2ccccc2c1)C(=O)O; Cit = NC(=O)NCCC[C@H](N)C(=O)O; Orn = NCCC[C@H](N)C(=O)O; Ahp = NCCCCCCC(=O)O; Bn = c1ccc(C*)cc1

In assay [1] the target is T1, hMC5-R (Homo sapiens, UniProt P33032).
T1 construct: expressed in transfected cells; host or cells: HEK 293 cells (membranes)
Briefly: Competitive inhibition binding assay with 125I-NDP-MSH, MC5 receptor. The following applies: 10 μM peptide, 0 assigned when raw inhibition between −10% and 10%, read-out: % Inhibition at 10 μM concentration at MC5-Receptor. Here is the method: (§1) Competitive inhibition binding assay was conducted using membranes prepared from hMC3-R, hMC4-R, hMC5-R, and B-16 mouse melanoma cells (containing MC1-R) using 0.4 nM ^125I-NDP-MSH (0.2 nM for MCL-R) (New England Nuclear, Boston, Mass., USA) in 50 mM HEPES buffer containing 1 mM MgCl2, 2 mM CaCl2, and 5 mM KCl, at pH 7.2. The assay tube also contained a chosen concentration of the peptides of this invention, for determining inhibition of the binding of ^125I-NDP-MSH to its receptor. Non-specific binding was measured by complete inhibition of binding of ^125I-NDP-MSH in the assay in the presence of 1 μM α-MSH. Incubation was for 90 minutes at 37° C., after which the assay mixture was filtered and the membranes washed three times with ice cold buffer. The filter was dried and counted in a gamma counter for remaining radioactivity bound to the membranes. 100% specific binding was defined as the difference in radioactivity (cpm) bound to cell membranes in the absence and presence of 1 μM α-MSH. The cpm obtained in the presence of peptides of this invention were normalized with respect to 100% specific binding to determine the percent inhibition of ^125I-NDP-MSH binding. Each assay was conducted in triplicate.
(§2) The binding of the peptides of Examples 1 to 13, inclusive, to melanocortin receptors was evaluated, with results shown on Table 1. Relative binding was determined by competitive inhibition using an α-MSH analog, iodinated NDP-MSH. B16-Fl mouse melanoma cells were used as the source of MC1 receptors and HEK 293 cells, transfected with human melanocortin receptor sequences, were used as the source of MC3, MC4 and MC5 receptors. A standard competitive binding assay protocol as described above was followed, using ^125I-NDP-MSH as the radioligand. A “0” percent inhibition was assigned when the raw percent inhibition, as an average of at least triplicate measures, was between −10% and 10%; in the majority of instances, the raw percent inhibition was between −10% and 0% inhibition.

The target in assay [2] is T2, hMC4-R (Homo sapiens, UniProt P32245).
T2 construct: expressed in transfected cells
Kind of assay: Competitive inhibition binding assay with 125I-NDP-MSH, MC4 receptor. The following applies: 10 μM peptide, 0 assigned when raw inhibition between −10% and 10%, read-out: % Inhibition at 10 μM concentration at MC4-Receptor. The method, then:
as §1, §2

Assay [3] has as its target T3, hMC3-R (Homo sapiens, UniProt P41968).
T3 construct: expressed in transfected cells; host or cells: HEK 293 cells (membranes)
Briefly: Competitive inhibition binding assay with 125I-NDP-MSH, MC3 receptor. The note with it: 10 μM peptide, 0 assigned when raw inhibition between −10% and 10%, read-out: % Inhibition at 10 μM concentration at MC3-Receptor. The method, then:
as §1, §2

For assay [4], the target named is T4, MC1-R (B16-F1 mouse melanoma cells) (Mus musculus, UniProt Q01727).
T4 construct: B-16 mouse melanoma cells (containing MC1-R); endogenous in cells; host or cells: B16-F1 mouse melanoma cells (membranes)
Kind of assay: Competitive inhibition binding assay with 125I-NDP-MSH, MC1 receptor. The following applies: 10 μM peptide, 0 assigned when raw inhibition between −10% and 10%, read-out: % Inhibition at 10 μM concentration at MC1-Receptor. Here is the method:
as §1, §2

Assay [5] deals with male Sprague-Dawley rats. Kind of assay: Induction of penile erections in male rats. Format: in vivo, rat. Here is the method:
The ability of the peptides of Examples 1 to 13 to induce penile erection in male rats was evaluated. Male Sprague-Dawley rats weighing 200-250 g were kept on a 12 hour on/off light cycle with food and water ad libitum. All behavioral studies were performed between 10 a.m. and 5 p.m. Groups of 4-8 rats were treated with peptides at a variety of doses via intravenous administration. Immediately after administration, rats were placed into individual polystyrene cages (27 cm long, 16 cm wide, and 25 cm high) for behavioral observation.
The efficacious dose of NH2—(CH2)6CO-Ser(Bzl)-D-Phe(4-Cl)-Arg, made as in Example 1 above, to induce penile erection in Sprague Dawley rats by intravenous dosing and oral administration was determined. […] NH2—(CH2)6CO-Ser(Bzl)-D-Phe(4-Cl)-Arg was efficacious at doses as low as 0.1 to 1 μg/kg of body weight when administered by oral means, and at doses lower than 0.001 μg/kg of body weight when administered by intravenous means.
The efficacious dose of NH2—(CH2)6—CO-Ser(Bzl)-D-Phe(4-Cl)-Arg(NO2), made as in Example 5 above, to induce penile erection in Sprague Dawley rats by intravenous dosing was determined. […] It was determined that NH2—(CH2)6—CO-Ser(Bzl)-D-Phe(4-Cl)-Arg(NO2) was efficacious at doses as low as 0.001 to 10 μg/kg of body weight when administered by intravenous means, with efficacy determined by induction of penile erection in 100% of animals. The optimal dose response was at 1 μg/kg of body weight. FIG. 1 depicts the dose response profile, with the error bars depicting standard deviation where n (the number of animals) is between 8 and 19, depending on the dose point.
The efficacious dose of NH2—(CH2)6—CO-Ser(Bzl)-D-Phe(4-Cl)-Arg(NO2), made as in Example 5 above, to induce penile erection in Sprague Dawley rats by intranasal administration using a micropipetor to deliver 25 μL of solution into one nostril was determined. […] It was determined that NH2—(CH2)6—CO-Ser(Bzl)-D-Phe(4-Cl)-Arg(NO2) was efficacious at doses between 0.01 μg/kg and 100 μg/kg of body weight when administered by intranasal means. The peak dose response was at an intranasal dose of 0.1 μg/kg of body weight.

Assay [6] concerns male rats. Briefly: Induced penile erections after pre-administration of MC4-R antagonist SHU9119. It is filed as in vivo, rat. The following applies: SHU9119 approximately 5 minutes before peptide. The text has this:
It is known that MC4-R antagonists inhibit the erectile activity of MC4-R agonists in a dose dependent manner. Such antagonists include SHU9119, a nonselective melanocortin antagonist of the formula Ac-Nle-cyc/o(-Asp-His-D-Nal(2′)-Arg-Trp-Lys)-NH2 (Hruby V. J., Lu D., Sharma S. D., et al. Cyclic lactam alpha-melanotropin analogues of Ac-Nle^4-cyclo[Asp^5, D-Phe^7, Lys^10]-NH2 with bulky aromatic amino acids at position 7 show high antagonist potency and selectivity at specific melanocortin receptors. J Med Chem 38:3454-3461 (1995)). Antagonists such as SHU9119 are known to inhibit MT-II and other known melanocortin receptor-specific agonists that induce erectile activity. SHU9119 was administered to male rats approximately 5 minutes before administration of either NH2—(CH2)6CO-Ser(Bzl)-D-Phe(4-Cl)-Arg or NH2—(CH2)6CO-Ser(Bzl)-D-Phe(4-Cl)-Arg-Trp-NH2, with Ac-Nle-cyc/o(Asp-His-D-Phe-Arg-Trp-Lys)-OH, a known MC4-R agonist, as a positive control.

T1 sequence (P33032 whole entry): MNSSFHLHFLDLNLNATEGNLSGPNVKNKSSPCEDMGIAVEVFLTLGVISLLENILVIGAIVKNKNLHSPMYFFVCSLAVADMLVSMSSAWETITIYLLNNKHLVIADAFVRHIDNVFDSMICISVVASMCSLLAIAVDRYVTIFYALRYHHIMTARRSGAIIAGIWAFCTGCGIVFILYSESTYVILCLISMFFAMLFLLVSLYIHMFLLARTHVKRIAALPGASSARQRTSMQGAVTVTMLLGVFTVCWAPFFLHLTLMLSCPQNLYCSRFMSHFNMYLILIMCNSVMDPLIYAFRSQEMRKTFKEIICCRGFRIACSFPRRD
T2 sequence (P32245 whole entry): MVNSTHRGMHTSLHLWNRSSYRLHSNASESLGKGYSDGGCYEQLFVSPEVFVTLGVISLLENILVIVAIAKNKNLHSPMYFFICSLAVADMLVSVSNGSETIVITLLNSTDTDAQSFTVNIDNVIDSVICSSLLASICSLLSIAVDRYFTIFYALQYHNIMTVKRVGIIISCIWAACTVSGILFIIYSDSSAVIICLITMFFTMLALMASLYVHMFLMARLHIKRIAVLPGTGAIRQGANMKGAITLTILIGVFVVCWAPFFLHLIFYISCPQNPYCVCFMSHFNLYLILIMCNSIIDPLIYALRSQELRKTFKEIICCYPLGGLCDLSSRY
T4 sequence (Q01727 whole entry): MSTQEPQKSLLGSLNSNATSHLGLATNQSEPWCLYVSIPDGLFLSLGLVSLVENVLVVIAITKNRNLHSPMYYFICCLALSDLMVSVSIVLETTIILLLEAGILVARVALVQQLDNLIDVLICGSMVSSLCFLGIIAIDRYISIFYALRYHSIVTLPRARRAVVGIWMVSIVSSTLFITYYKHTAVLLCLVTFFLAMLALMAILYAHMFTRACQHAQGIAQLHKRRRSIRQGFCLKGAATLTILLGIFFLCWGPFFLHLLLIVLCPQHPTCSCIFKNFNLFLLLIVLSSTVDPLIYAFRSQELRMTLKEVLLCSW
T3 sequence (P41968 whole entry): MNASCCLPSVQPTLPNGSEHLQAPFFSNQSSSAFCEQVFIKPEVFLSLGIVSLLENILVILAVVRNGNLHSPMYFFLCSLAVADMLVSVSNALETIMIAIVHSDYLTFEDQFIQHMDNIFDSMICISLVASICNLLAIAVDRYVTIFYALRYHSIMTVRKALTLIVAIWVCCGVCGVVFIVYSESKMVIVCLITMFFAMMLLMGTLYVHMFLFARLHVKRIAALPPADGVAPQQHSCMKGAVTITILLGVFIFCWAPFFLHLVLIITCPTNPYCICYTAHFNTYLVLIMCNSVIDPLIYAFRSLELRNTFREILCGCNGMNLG

Consider `CC(=O)N[C@@H](COCc1ccccc1)C(=O)N[C@H](Cc1ccc(Cl)cc1)C(=O)N[C@@H](CCCNC(=N)N)C(=O)O` [Ac-Ser(Bzl)-D-Phe(4-Cl)-Arg] (Ac-Ser(Bn)-[dPhe(4-Cl)]-Arg-OH), for which the inhibition at 10 µM in assay [1], in assay [2], in assay [3] and in assay [4] was 0% each time.
Turning to `C[C@H](NC(=O)CCCCCCN)C(=O)N[C@H](Cc1ccc(Cl)cc1)C(=O)N[C@@H](CCCNC(=N)N)C(=O)O` [NH2—(CH2)6—CO-Ala-D-Phe(4-Cl)-Arg] (H-[Ahp]A[dPhe(4-Cl)]R-OH), the inhibition at 10 µM in assay [1], in assay [2], in assay [3] and in assay [4] was 0% throughout.
In the case of `C[C@@H](NC(=O)[C@H](COCc1ccccc1)NC(=O)CCCCCCN)C(=O)N[C@@H](CCCNC(=N)N)C(=O)O` [NH2—(CH2)6—CO-Ser(Bzl)-D-Ala-Arg] (H-[Ahp]S(Bn)[dA]R-OH), the inhibition at 10 µM in assay [1], in assay [2], in assay [3] and in assay [4] was 0% each time.
For `N=C(N)NCCC[C@H](NC(=O)[C@@H](Cc1ccc2ccccc2c1)NC(=O)[C@H](COCc1ccccc1)NC(=O)CCCCCCN)C(N)=O` [NH2—(CH2)6—CO-Ser(Bzl)-D-Nal 2-Arg-NH2] (H-[Ahp]S(Bn)[d2Nal]R-NH2), the inhibition at 10 µM in assay [1], in assay [2], in assay [3] and in assay [4] was 0% throughout.
On to `N=C(N)NCCC[C@H](NC(=O)[C@@H](Cc1ccc2ccccc2c1)NC(=O)[C@H](COCc1ccccc1)NC(=O)CCCCCCN)C(=O)O` [NH2—(CH2)6—CO-Ser(Bzl)-D-Nal 2-Arg] (H-[Ahp]S(Bn)[d2Nal]R-OH), for which the inhibition at 10 µM in assay [1], in assay [2], in assay [3] and in assay [4] was 0% in each case.
For the compound `C[C@H](NC(=O)[C@@H](Cc1ccc(Cl)cc1)NC(=O)[C@H](COCc1ccccc1)NC(=O)CCCCCCN)C(=O)O` [NH2—(CH2)6—CO-Ser(Bzl)-D-Phe(4-Cl)-Ala] (H-[Ahp]S(Bn)[dPhe(4-Cl)]A-OH), the inhibition at 10 µM in assay [1], in assay [2], in assay [3] and in assay [4] was 0% throughout.
As to `NCCCCCCC(=O)N[C@@H](COCc1ccccc1)C(=O)N[C@H](Cc1ccc(Cl)cc1)C(=O)N[C@@H](CCCNC(N)=N[N+](=O)[O-])C(=O)O` [NH2—(CH2)6—CO-Ser(Bzl)-D-Phe(4-Cl)-Arg(NO2)] (H-[Ahp]S(Bn)[dPhe(4-Cl)][Arg(NO2)]-OH), the inhibition at 10 µM in assay [1], in assay [2], in assay [3] and in assay [4] was 0% each time. For the same compound, in assay [5] (intravenous, 0.001 to 10 μg/kg), the “animals with induction of penile erection at efficacious doses” value was 100%. Moreover, the “peak (optimal) dose response, intranasal” value is 0.1 µg/kg in assay [5] (male Sprague Dawley rats) and “about 0.1 μg/kg” in assay [5] (male Sprague Dawley rats, listed as NH2—(CH2)6Co-Ser(Bzl)-D-Phe(4-Cl)-Arg(NO2)). In assay [5] (male Sprague Dawley rats, intravenous), the “optimal dose response, intravenous” value came out at 1 µg/kg.
On to `N=C(N)NCCC[C@H](NC(=O)[C@@H](Cc1ccc(Cl)cc1)NC(=O)[C@H](COCc1ccccc1)NC(=O)CCCCCCN)C(N)=O` [NH2—(CH2)6—CO-Ser(Bzl)-D-Phe(4-Cl)-Arg-NH2] (H-[Ahp]S(Bn)[dPhe(4-Cl)]R-NH2), for which the inhibition at 10 µM in assay [1], in assay [2], in assay [3] and in assay [4] was 0% throughout.
Turning to `NCCCCCCC(=O)N[C@@H](COCc1ccccc1)C(=O)N[C@H](Cc1ccc(Cl)cc1)C(=O)N[C@@H](CCCNC(N)=O)C(=O)O` [NH2—(CH2)6—CO-Ser(Bzl)-D-Phe(4-Cl)-Cit] (H-[Ahp]S(Bn)[dPhe(4-Cl)][Cit]-OH), the inhibition at 10 µM in assay [1], in assay [2], in assay [3] and in assay [4] was 0% in each case.
`NCCCCCCC(=O)N[C@@H](COCc1ccccc1)C(=O)N[C@H](Cc1ccc(Cl)cc1)C(=O)N[C@@H](CCCCN)C(=O)O` [NH2—(CH2)6—CO-Ser(Bzl)-D-Phe(4-Cl)-Lys] (H-[Ahp]S(Bn)[dPhe(4-Cl)]K-OH): the inhibition at 10 µM in assay [1], in assay [2], in assay [3] and in assay [4] was 0% in each case.
For `NCCCCCCC(=O)N[C@@H](COCc1ccccc1)C(=O)N[C@H](Cc1ccc(Cl)cc1)C(=O)N[C@@H](CCCN)C(=O)O` [NH2—(CH2)6—CO-Ser(Bzl)-D-Phe(4-Cl)-Orn] (H-[Ahp]S(Bn)[dPhe(4-Cl)][Orn]-OH), the inhibition at 10 µM in assay [1], in assay [2], in assay [3] and in assay [4] was 0% each time.
As to `N=C(N)NCCC[C@H](NC(=O)[C@@H](Cc1ccc(Cl)cc1)NC(=O)[C@@H](N)COCc1ccccc1)C(=O)O` [Ser(Bzl)-D-Phe(4-Cl)-Arg] (H-Ser(Bn)-[dPhe(4-Cl)]-Arg-OH), the inhibition at 10 µM in assay [1], in assay [2], in assay [3] and in assay [4] was 0% each time.
As for “NH2—(CH2)6CO-Ser(Bzl)-D-Phe(4-Cl)-Arg-Trp-NH2 ({NH2‑(CH2)6‑CO}-[Ser(Bzl)][dPhe(4-Cl)]RW-NH2)”, in assay [6], the “effect of SHU9119 pre-administration on induced erections” value is “resulted in erections at a rate equivalent to that obtained without pre-administration of SHU9119”.
